According to US20120189544A1, “GASTROINTESTINAL DISEASE OR DISORDER IMAGING AND TREATMENT” (SALK INSTITUTE FOR BIOLOGICAL STUDIES, priority 2009, published 2012):

Key:
[1] = system: pre-existing GI polyps in Lkb1^+/− mice
Description: Mouse Colony Maintenance, Treatment Regimen and Polyp Measurement. Lkb1^+/+ and Lkb1^+/− mice, maintained on an FVB/N genetic background, were monitored for the development of gastrointestinal polyps. Mice with clinical signs of disease were euthanized and necropsied. The groups were vehicle treated or RAPA treated mice. […] Polyps were scored and total polyp burden was measured).
After two months of treatment, polyp size and number in each mouse were quantitated.

[2] = system: PTEN-deficient glioblastomas and metastatic renal cell carcinomas; details: patients with PTEN-deficient glioblastomas and metastatic renal cell carcinomas; cited from earlier work

| Structure (SMILES) | reduction in the overall mass of polyps ([1]; Lkb1+/− mice treated vs untreated with rapamycin, two months) | mean polyp burden (total polyp burden) ([1]; Lkb1+/− mice, 10 mg/kg rapamycin i.p., two months, n=10, VEH 9.6±5.5, p=0.00026) | mean polyp size ([1]; Lkb1+/− mice, n=10, VEH 4.4±0.8, p<0.0001) | mean polyp number ([1]; Lkb1+/− mice, visible polyps between 1 and 5 mm scored, n=10, VEH 5.3±1.8, p=0.00022) | clinical outcome [2] |
| --- | --- | --- | --- | --- | --- |
| CO[C@H]1C[C@@H]2CC[C@@H](C)[C@@](O)(O2)C(=O)C(=O)N2CCCC[C@H]2C(=O)O[C@H]([C@H](C)C[C@@H]2CC[C@@H](O)[C@H](OC)C2)CC(=O)[C@H](C)/C=C(\C)[C@@H](O)[C@@H](OC)C(=O)[C@H](C)C[C@H](C)/C=C/C=C/C=C/1C [rapamycin] | 80% | 2.0±1.2 | 1.2±0.9 | 2.8±1.4 |  |
| CO[C@H]1C[C@@H]2CC[C@@H](C)[C@@](O)(O2)C(=O)C(=O)N2CCCC[C@H]2C(=O)O[C@H]([C@H](C)C[C@@H]2CC[C@@H](OC(=O)C(C)(CO)CO)[C@H](OC)C2)CC(=O)[C@H](C)/C=C(\C)[C@@H](O)[C@@H](OC)C(=O)[C@H](C)C[C@H](C)/C=C/C=C/C=C/1C [Temsirolimus, temsirolimus] |  |  |  |  | palliative success |
